From ChEMBL document CHEMBL5608178, “Design and synthesis of 7-membered lactam fused hydroxypyridinones as potent metal binding pharmacophores (MBPs) for inhibiting influenza virus PAN endonuclease” (Eur J Med Chem, 2024)

How the values were obtained:
[1] = target: Polymerase acidic protein (Influenza A virus (A/Puerto Rico/8/1934(H1N1))) (UniProt P03433); assay: Inhibition of Influenza A virus N-terminal Polymerase acidic protein endonuclease activity in HEK293T cells transfected with IAV RNA polymerase complex and firefly/renilla luciferase reporter at 10 uM by […] Dual-Glo luciferase assay relative to control; format: cell-based
[2] = target: Polymerase acidic protein (Influenza A virus (A/Puerto Rico/8/1934(H1N1)), UniProt P03433); assay: Inhibition of Influenza A virus N-terminal Polymerase acidic protein endonuclease activity in HEK293T cells transfected with IAV RNA polymerase complex and firefly/renilla luciferase reporter by […] Dual-Glo luciferase assay; format: cell-based
[3] = tested on: Influenza A virus; assay: Antiviral activity against Influenza A virus A/WSN/33, H1N1 infected in MDCK cells assessed as decrease in viral replication incubated for 72 hrs; format: functional, organism-based; conditions: A/WSN/33, H1N1, MDCK
[4] = Cytotoxicity against MDCK cells assessed as decrease in survival rate; format: toxicity, cell-based, Canis lupus familiaris; conditions: dog
[5] = tested on: Influenza A virus; assay: Antiviral activity against Influenza A virus A/WSN/33, H1N1 infected in MDCK cells assessed as suppression of viral titer at 3 uM incubated for 72 hrs relative to control; format: functional

| SMILES | inhibition [1] [%] | IC50 [2] [µM] | EC50 [3] [µM] | CC50 [4] [µM] | Activity [5] [%] |
| --- | --- | --- | --- | --- | --- |
| O=C1c2c(O)c(=O)ccn2N(C2c3ccccc3CCc3ccccc32)C[C@@H]2CCCN12 | 68.2 | – | – | – | – |
| CSCC[C@@H]1CN(C2c3ccccc3CCc3ccccc32)n2ccc(=O)c(O)c2C(=O)N1 | 64.2 | – | – | – | – |
| O=C1c2c(O)c(=O)ccn2N([C@H]2c3ccccc3SCc3c2ccc(F)c3F)C[C@H]2CCCN12 | – | 0.231 | 2.88 | 98.5 | – |
| O=C1c2c(O)c(=O)ccn2N(C2c3ccccc3CCc3ccccc32)C[C@H]2CCCN12 | 81.1 | 2.87 | 0.724 | 34.3 | – |
| C[C@@H]1CN(C2c3ccccc3CCc3ccccc32)n2ccc(=O)c(O)c2C(=O)N1 | 75.3 | – | – | – | – |
| O=C1c2c(O)c(=O)ccn2N(C2c3ccccc3C=Cc3ccccc32)C[C@H]2CCCN12 | 91.9 | 0.437 | 0.292 | 62.9 | 82.2 |
| O=C1c2c(O)c(=O)ccn2N(C(c2ccc(F)cc2)c2ccc(F)cc2)C[C@H]2CCCN12 | 50.1 | – | – | – | – |
| C[C@H]1CN(C2c3ccccc3CCc3ccccc32)n2ccc(=O)c(O)c2C(=O)N1 | 37.6 | – | – | – | – |
| O=C1N[C@H](c2ccccc2)CN(C2c3ccccc3CCc3ccccc32)n2ccc(=O)c(O)c21 | 31.6 | – | – | – | – |
| O=C1N[C@H](Cc2ccccc2)CN(C2c3ccccc3CCc3ccccc32)n2ccc(=O)c(O)c21 | 49.5 | – | – | – | – |
| O=C1c2c(O)c(=O)ccn2N([C@@H]2c3ccccc3SCc3c2ccc(F)c3F)[C@@H]2COCCN12 [BALOXAVIR] | 99 | 0.001 | 0.001 | 28.8 | – |
| O=C1c2c(O)c(=O)ccn2N(C(c2ccccc2)c2ccccc2)C[C@H]2CCCN12 | 48.2 | – | – | – | – |
| O=C1c2c(O)c(=O)ccn2N([C@@H]2c3ccccc3SCc3c2ccc(F)c3F)C[C@H]2CCCN12 | – | 0.045 | 0.134 | 15.3 | – |
| CC(C)[C@H]1CN(C2c3ccccc3CCc3ccccc32)n2ccc(=O)c(O)c2C(=O)N1 | 31 | – | – | – | – |
| CC(C)C[C@@H]1CN(C2c3ccccc3CCc3ccccc32)n2ccc(=O)c(O)c2C(=O)N1 | 56.4 | – | – | – | – |
| O=C1c2c(O)c(=O)ccn2N(C2c3ccccc3CCc3ccccc32)C[C@H]2CCCCN12 | 66.9 | – | – | – | – |
| CC(C)C[C@H]1CN(C2c3ccccc3CCc3ccccc32)n2ccc(=O)c(O)c2C(=O)N1 | 22.4 | – | – | – | – |
| O=C1c2c(O)c(=O)ccn2N(C2c3ccccc3SCc3c2ccc(F)c3F)C[C@H]2CCCN12 (stereo not given in full) | 99.6 | 0.082 | 0.421 | 29.6 | 99.9 |
| O=C1N[C@@H](Cc2ccccc2)CN(C2c3ccccc3CCc3ccccc32)n2ccc(=O)c(O)c21 | 49 | – | – | – | – |
| O=C1NC2(CCCC2)CN(C2c3ccccc3CCc3ccccc32)n2ccc(=O)c(O)c21 | 9.2 | – | – | – | – |
| O=C1c2c(O)c(=O)ccn2N(C2c3ccccc3CCc3ccccc32)C[C@@H]2CCCCN12 | 36.5 | – | – | – | – |
| CSCC[C@H]1CN(C2c3ccccc3CCc3ccccc32)n2ccc(=O)c(O)c2C(=O)N1 | 30.5 | – | – | – | – |
